{"source": "patent US20230098686A1", "about": "“NERVE SPECIFIC FLUOROPHORE FORMULATIONS FOR DIRECT AND SYSTEMIC ADMINISTRATION” (OREGON HEALTH & SCIENCE UNIVERSITY, priority 2020, published 2023)", "origin": "cited, not measured here", "system": "nerve tissue", "settings": "previous studies"}
{"compound": "CC/N=c1/cc2oc3cc(NCC)c(C)cc3nc-2cc1C", "note": "[Oxazine 4]", "values": [{"measurement": "nerve specificity", "result": "high nerve-specificity"}]}
